Results: PubChem BioAssay (NCI)
Where “and” joins values, the source holds several entries; their conditions need not be identical. Equal entries are not always repeated.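 Briefly, cells in 96-well plates were exposed to five compound concentrations for 48 h, and endpoints were estimated by linear interpolation. GI50 marks 50% less growth. The concentration for full growth arrest is given as TGI.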

Tests used:
Experiment in all cases: NCI tumour cell line growth inhibition, 48 h
COLO 205 colon = tested on: COLO 205 colon
T-47D breast = tested on: T-47D breast
KM12 colon = tested on: KM12 colon
SF-268 CNS = tested on: SF-268 CNS
TK-10 renal = tested on: TK-10 renal
MCF7 breast = tested on: MCF7 breast
HOP-62 NSCLC = tested on: HOP-62 NSCLC
CCRF-CEM leukemia = tested on: CCRF-CEM leukemia
LOX IMVI melanoma = tested on: LOX IMVI melanoma
HS 578T breast = tested on: HS 578T breast

Row | SMILES | GI50 (COLO 205 colon) | TGI (COLO 205 colon) | GI50 (T-47D breast) | TGI (T-47D breast) | GI50 (KM12 colon) | TGI (KM12 colon) | GI50 (SF-268 CNS) | TGI (SF-268 CNS) | GI50 (TK-10 renal) | TGI (TK-10 renal) | GI50 (MCF7 breast) | TGI (MCF7 breast) | GI50 (HOP-62 NSCLC) | TGI (HOP-62 NSCLC) | GI50 (CCRF-CEM leukemia) | TGI (CCRF-CEM leukemia) | GI50 (LOX IMVI melanoma) | TGI (LOX IMVI melanoma) | GI50 (HS 578T breast) | TGI (HS 578T breast)
1 | COC(=O)c1ccc2c(c1)C(=O)c1c-2n(C)c(=O)c2cc(OC)c(OC)cc12 | > 50 µM | > 50 µM | > 50 µM | > 50 µM | > 50 µM | > 50 µM | > 50 µM | > 50 µM | 32.1 µM | > 50 µM | > 50 µM | > 50 µM | 17.7 µM | > 50 µM | > 50 µM | > 50 µM | > 50 µM | > 50 µM | > 50 µM | > 50 µM
2 | CCCCCCCCCCC/C=C\C[C@H](O)C/C=C1/C(=O)C=C[C@@H]1C/C=C\CCCC(=O)OC | 1.21 µM | 3.83 µM | 0.796 µM | 3.44 µM | 0.852 µM | 2.45 µM | 0.939 µM | 3.97 µM | 1.95 µM | 9.78 µM | 0.754 µM | 4.08 µM | 1.01 µM | 3.51 µM | 0.923 µM | 5.36 µM | 0.536 µM | 1.05 µM | 0.986 µM | 6.1 µM
3 | Cc1ccc(/C=C/C(=N/N=C(N)N)c2ccccc2)cc1 | 1.69 µM | 3.74 µM | 4.3 µM | 18.1 µM | 2.97 µM | 13.2 µM | 4.13 µM | 16.3 µM | 3.89 µM | 12 µM | 0.465 µM | 12.4 µM | 3.57 µM | 16 µM | 2.34 µM | 18.9 µM | 3.28 µM | 15.5 µM | 1.56 µM | 5.14 µM
4 | CC1(C)CCCC(C)(C2CCC3(C)C2C(O)CC2C4(C)CCC(O)C(C)(C)C4C(O)CC23C)O1 (stereo not drawn) | – | 24.4 µM | – | 28.9 µM | – | 24.7 µM | – | 31.9 µM | – | 25.4 µM | – | 29.3 µM | – | – | – | 8.67 µM | – | > 100 µM | – | 30.8 µM
5 | CSc1ccc2c(c1)N(CCC1CCCCN1C)c1ccccc1S2 (stereo not drawn) | 6.22 µM and 3.57 µM | 24 µM and 13.2 µM | 5.82 µM and 3.4 µM | 23.3 µM and 11.4 µM | 6.3 µM and 4.16 µM | 18.8 µM and 16.1 µM | 7.7 µM and 4.85 µM | 21.6 µM and 17.7 µM | 13.8 µM and 4.11 µM | 28.5 µM and 13.4 µM | 5.63 µM and 2.2 µM | 21.7 µM and 4.48 µM | 9.08 µM and 9.59 µM | 24 µM and 25.9 µM | 5.45 µM and 2.26 µM | 21.1 µM and 27.4 µM | 3.44 µM and 1.78 µM | 14.8 µM and 3.34 µM | 6.89 µM and 3.01 µM | 28.1 µM and 13.2 µM
6 | Clc1nc(Cl)c2c3c(sc2n1)CCCC3 | 2.75 µM | > 22.6 µM | > 22.1 µM | > 100 µM | > 100 µM | > 100 µM | 4.37 µM | > 100 µM | 5.34 µM | > 100 µM | 3.56 µM | > 100 µM | > 100 µM | > 100 µM | 17.1 µM | > 100 µM | 1.78 µM | > 100 µM | – | > 100 µM
